According to PubChem BioAssay (NCI):
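Protocol summary: plate cells (96-well), add compound at 5 concentrations, incubate 48 h, interpolate endpoints linearly. TGI: concentration producing complete growth inhibition.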

Columns and labels:
Assay in all cases: NCI tumour cell line growth inhibition, 48 h
BT-549 breast = tested on: BT-549 breast
COLO 205 colon = tested on: COLO 205 colon
DU-145 prostate = tested on: DU-145 prostate
EKVX NSCLC = tested on: EKVX NSCLC
HCC-2998 colon = tested on: HCC-2998 colon
HCT-15 colon = tested on: HCT-15 colon
HL-60(TB) leukemia = tested on: HL-60(TB) leukemia
HS 578T breast = tested on: HS 578T breast
K-562 leukemia = tested on: K-562 leukemia
M14 melanoma = tested on: M14 melanoma
NCI-H460 lung = tested on: NCI-H460 lung
OVCAR-3 ovarian = tested on: OVCAR-3 ovarian
OVCAR-4 ovarian = tested on: OVCAR-4 ovarian
RPMI-8226 leukemia = tested on: RPMI-8226 leukemia
SF-268 CNS = tested on: SF-268 CNS
SF-295 CNS = tested on: SF-295 CNS
HOP-92 NSCLC = tested on: HOP-92 NSCLC
SK-MEL-5 melanoma = tested on: SK-MEL-5 melanoma
RXF 393 renal = tested on: RXF 393 renal

| SMILES | TGI (BT-549 breast) [µM] | TGI (COLO 205 colon) [µM] | TGI (DU-145 prostate) [µM] | TGI (EKVX NSCLC) [µM] | TGI (HCC-2998 colon) [µM] | TGI (HCT-15 colon) [µM] | TGI (HL-60(TB) leukemia) [µM] | TGI (HS 578T breast) [µM] | TGI (K-562 leukemia) [µM] | TGI (M14 melanoma) [µM] | TGI (NCI-H460 lung) [µM] | TGI (OVCAR-3 ovarian) [µM] | TGI (OVCAR-4 ovarian) [µM] | TGI (RPMI-8226 leukemia) [µM] | TGI (SF-268 CNS) [µM] | TGI (SF-295 CNS) [µM] | TGI (HOP-92 NSCLC) [µM] | TGI (SK-MEL-5 melanoma) [µM] | TGI (RXF 393 renal) [µM] |
| --- | --- | --- | --- | --- | --- | --- | --- | --- | --- | --- | --- | --- | --- | --- | --- | --- | --- | --- | --- |
| O=C(O)c1cc(CC2Cc3cc4c(cc3C2=O)CCC4)cc2c1CCC2 (centres undefined) | > 100 | > 100 | > 100 | > 100 | > 100 | > 100 | > 100 | > 100 | > 100 | > 100 | > 100 | > 100 | > 100 | > 100 | > 100 | > 100 |  |  |  |
| COC(=O)C1=C(C)C(=O)[C@]23C(CCCC[C@H]12)C(=O)[C@H](C(=O)OC)C3C (some centres undefined) | > 100 | > 100 | > 100 | > 100 | > 100 | > 100 | > 100 | > 100 | > 100 | > 100 | > 100 | > 100 | > 100 |  | > 100 | > 100 | > 100 |  |  |
| CCOC(=O)c1cc(=O)c2ccnc3c2n1CCS3 | > 100 | > 100 | > 100 | > 100 |  | > 100 | > 100 | > 100 |  | > 100 | > 100 | > 100 |  |  | > 100 | > 100 | > 100 | > 100 |  |
| O=C1N=C(SC(SC2=NC(=O)C3(NN2)c2ccccc2-c2ccccc23)=C(SC2=NC(=O)C3(NN2)c2ccccc2-c2ccccc23)SC2=NC(=O)C3(NN2)c2ccccc2-c2ccccc23)NNC12c1ccccc1-c1ccccc12 | > 10 | > 10 | > 10 | > 10 | > 10 | > 10 |  | > 10 | > 10 | > 10 | > 10 |  | > 10 | > 10 | > 10 | > 10 | > 10 | > 10 | > 10 |
| COc1cc(C(=O)/C=C/c2ccc(OCC#N)cc2)cc(OC)c1OC | 32 | 39.5 | 79.8 | > 100 | 30.6 | 40.3 |  | > 100 | 86.9 |  | 80.9 | 59.5 | > 100 |  | > 100 | > 100 | 35.9 | 25.9 | 34.1 |
| N#CC(C#N)=C1c2ccccc2C(=NN)c2ccccc21 | > 100 | > 100 | > 100 |  | > 100 | > 100 |  | > 91.5 | > 100 | > 100 |  | > 100 |  | > 100 | > 100 | > 100 | > 100 | > 100 | > 100 |
| CCCc1cc(=O)oc2c3c(c4c(c12)OC(C)(C)CC4)O[C@@H](C)[C@H](C)[C@H]3O | 17.9 | 28.6 | 31.8 | 29.4 | 28.3 | 25.2 |  | 37.5 | 7.17 | 28.3 | 24.2 | 32.7 | 22.5 | 8.74 | 30.3 | 28.5 | 26.5 | 20.3 | 27.1 |
| Cc1cc2c(cc1Cl)SC(NNC(=O)c1ccco1)=NS2(=O)=O | > 10 | > 10 | > 10 | > 10 | > 10 | > 10 | > 10 | > 10 | > 10 | > 10 | > 10 | > 10 | > 10 | > 10 | > 10 | > 10 |  | > 10 | > 10 |
| CC(=O)OC/C=C/[C@H](O[Si](C)(C)C(C)(C)C)[C@@H](O)/C=C/COC(C)=O | > 100 | > 100 | > 100 | > 100 | > 100 | > 100 |  | > 100 | 52.8 | > 100 | > 100 | > 100 | > 100 | 43.7 | > 100 | > 100 | > 100 | > 100 | > 100 |
| O=[N+]([O-])C(=C(Nc1ccccc1)Nc1ccccc1)/C(Cl)=C(\Cl)[N+](=O)[O-] | 13.7 | 7.08 | 8.92 | 19.5 | 28.9 | 12.3 |  | 8.74 | > 100 | 16.8 | 53.7 | 12 | 17.6 | 19.2 | 14.6 | 26.1 |  | 5.05 | 6.13 |
| CN1CC[C@]23c4c5ccc(O)c4O[C@H]2C(O)CC[C@@]3(O)[C@H]1C5 (some centres undefined) | > 100 | > 100 | > 100 | > 100 |  | > 100 | > 100 | > 100 |  | > 100 |  | > 100 | > 100 | > 100 | > 100 | > 100 | > 100 | > 100 |  |
| Fc1ccc(Oc2nc3ccc(C(F)(F)F)cc3nc2-c2ccccc2)cc1 | > 100 | > 100 | > 100 | > 100 | 35.5 | > 100 | > 100 | 99.5 | > 10 | > 100 | > 100 | > 100 | > 100 |  | > 100 | > 100 |  | > 100 | > 100 |
| CC12O[C@]3([C@H](C(=O)N4CCOC43C)[C@H]1Cl)[C@H]1O[C@H]12 (some centres undefined) | > 100 | 91.9 | > 100 | > 100 | > 100 | > 100 | > 100 | > 100 | > 100 | > 100 | > 100 | > 100 | > 100 | > 100 | > 100 | > 100 | > 100 | > 100 |  |
| COc1ccc([C@H]2CC(=O)C[C@H](c3ccc(OC)cc3)C23C(=O)c2ccccc2C3=O)cc1 | > 100 | 8.32 | > 100 | > 100 | 32.6 | > 100 |  | 87.8 | > 100 | > 100 | > 100 |  | > 100 | > 100 | > 100 | > 100 | > 100 | 17.4 | 16 |
| Cc1ccc(Cc2n[nH]c(=O)n2Nc2ccccc2)cc1 | > 100 | > 100 | > 100 | > 100 | > 100 | > 100 | > 100 | > 100 | > 100 |  | > 100 | > 100 | > 100 | > 100 | > 100 | > 100 | > 100 | > 100 |  |
| OCCOCCN1CCN(CCCN2c3ccccc3Sc3ccc(C(F)(F)F)cc32)CC1 | 35.4 | 3.57 | 27.6 | 29.2 | 13 | 38.3 |  | 38.9 | 10.3 | 5.39 | 22.7 | 33 | 30.2 | 17.8 | 33.1 | 25.8 | 27.8 | 13.8 | 9.85 |
| O=C(NNC(=S)Nc1ccccc1)c1cc(-c2ccccc2)nc2ccccc12 | 49.6 | 36.8 | 39.1 |  | 30.5 | 33 |  | 65.6 | 63.2 | 30.5 | > 100 | 24.4 | 56.2 | 44.9 | 76.3 | 27.4 | 37.7 | 27 | 46.4 |
| O=c1cc(-c2ccccc2)[nH]c2ccc(N3CCOCC3)cc12 | > 100 |  | > 32.9 | > 100 | > 100 | > 100 |  | > 100 | > 100 | > 79.2 | > 100 | 39.2 | > 100 | > 100 | 15.8 | 0.0773 | 44.1 | 14.3 | 46.5 |
| Cc1ccc2nc(Cl)c(/C=N/N3C(=O)/C(=C/c4cccc([N+](=O)[O-])c4)N=C3c3ccccc3)cc2c1 | > 100 | > 100 | > 100 | > 100 | > 100 | > 100 | > 100 | > 100 | > 100 | > 100 | > 100 | > 100 | > 100 | > 100 | > 100 | > 100 | > 100 | > 100 |  |
| Cc1ccc2nc3c(=O)[nH]c(=O)nc-3n(C)c2c1C | > 100 | > 100 | > 100 | > 100 | > 100 | > 100 | > 100 | > 100 | > 100 | > 100 | > 100 | > 100 | > 100 | > 100 | > 100 | > 100 |  | > 100 | > 100 |
| O=C1Nc2ccccc2C1=Nc1cccc2ncccc12 | > 100 | > 100 | > 100 | 85.6 |  | > 100 |  | > 100 | > 100 | > 100 | > 100 | > 100 | > 100 | > 100 | > 100 | > 100 | > 100 | > 100 | > 100 |
